The record followed here is PubChem BioAssay AID1959 (Broad Institute, 2009).

Activity calls are given as the source filed them.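 How the source made its calls: active means growth-inhibition EC50 no more than tenfold above the top tested dose; inconclusive means flat fit between 30% and 70% inhibition, or unreliable fit; inactive means EC50 more than tenfold above the top tested dose.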

In the experiment the test system is E. coli NEB5alpha growth, BacTiter-Glo luminescence, 4 h. As to the kind of experiment: antibacterial activity against E. coli NEB5alpha – luminescence, counter-screen for MEX-5/POS-1 RNA-binding inhibitor project, dose response (AID 1959).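 Further: pUC19-transformed ampicillin-resistant cells grown in LB with ampicillin.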 In general terms: The purpose of a counterscreen is to sort out artefacts and off-target activity.
For the compound `O=C(O)c1cccc(-n2cccc2/C=C2/NC(=O)N(Cc3ccccc3F)C2=O)c1`, the EC50 is > 11 µM (inactive).

As for `O=C(O)CCC(=O)NNc1nc(-c2ccccc2)c2cc(Cl)ccc2n1`, the EC50 was > 11 µM (inactive).

For `CN1CCCc2cc3c(C(F)(F)F)cc(=O)oc3nc21`, the EC50 was > 11 µM (inactive).

As for `CCc1c(C)nc(SCC(=O)NNC(=O)c2ccco2)[nH]c1=O`, the EC50 was > 11 µM (inactive).

Consider `C[n+]1c(-c2ccccc2)c2cc(N)ccc2c2ccc(N)cc21`, for which the EC50 was > 11 µM (inactive).

On to `O=C(Nc1cc(=O)[nH]c2ncnn12)c1ccc(Cl)cc1Cl`, for which the EC50 was > 11 µM (inactive).

In the case of `Cc1ccc(NC(=O)CSc2nnc(N)s2)cc1S(=O)(=O)N1CCOCC1`, the EC50 is > 11 µM (inactive).

`CCOCCCn1c(=NC(C)=O)c(C#N)cc2c(=O)n3ccccc3nc21`: the EC50 is > 11 µM (inactive).

As to `Cc1ccccc1CSCCNC(=S)Nc1ccccc1`, the EC50 is > 11 µM (inactive).

As to `COC(=O)c1sccc1NC(=O)c1ccc(C)s1`, the EC50 was > 11 µM (inactive).

Regarding `COCCn1c(=N)c(S(=O)(=O)c2ccc(Br)cc2)cc2c(=O)n3ccccc3nc21`, the EC50 is > 11 µM (inactive).

Take `COC(=O)C1CSc2[nH]c(=O)sc2C1c1ccccc1` (centres undefined): the EC50 was > 11 µM (inactive).

For `COc1cccc(C2C(C#N)=C(N)OC3=C2C(=O)CC(c2ccco2)C3)c1OCc1ccc(F)cc1` (centres undefined), the EC50 was > 11 µM (inactive).

On to `C=CCc1cccc(/C=N/n2cnnc2)c1O`, for which the EC50 is > 11 µM (inactive).

Consider `Cc1ccc(/C=N/Nc2ncnc3nc[nH]c23)cc1`, for which the EC50 was > 11 µM (inactive).

With `CCOC(=O)COn1c(=O)c(-c2cc3ccccc3o2)[n+]([O-])c2ccccc21`, the EC50 was > 11 µM (inactive).

As to `CC(C)c1ccc(/C=C(\NC(=O)c2ccccc2)C(=O)NCCN2CCOCC2)cc1`, the EC50 was > 11 µM (inactive).

On to `O=C(N/N=C/C=C/c1ccc([N+](=O)[O-])cc1)c1cccs1`, for which the EC50 was > 11 µM (inactive).

On to `Cc1cc(-c2ccccc2)nc(N/N=C/c2ccc(O)cc2O)n1`, for which the EC50 was > 11 µM (inactive).

As to `O=C(c1ccco1)N1CCN(c2ncnc3c(-c4ccc(Cl)cc4)nsc23)CC1`, the EC50 is > 11 µM (inactive).

On to `O=c1[nH]c(=O)n(CC2CCCO2)c(O)c1/C=C1\C=Nc2ccccc21` (centres undefined), for which the EC50 was > 11 µM (inactive).

As to `COc1ccc(N2C(=O)/C(=C/c3ccc(C)o3)C(=O)NC2=S)c(OC)c1`, the EC50 is > 11 µM (inactive).

As to `COCCNC(=O)C1Nc2ccc(OC(F)(F)F)cc2C2C=CCC12` (centres undefined), the EC50 is > 11 µM (inactive).

Turning to `CCCCCCCCCCCCCCCCn1cc[n+](C)c1`, the EC50 is 9.41 µM.

As to `CC1=NOC(=O)/C1=C\c1ccc2c(c1)OCO2`, the EC50 is > 11 µM (inactive).

In the case of `CCC1(c2ccccc2)NC(=O)N(CC(=O)NCc2ccc(F)cc2)C1=O` (centres undefined), the EC50 was > 11 µM (inactive).

As for `O=C(O)C1Nc2c(C(=O)N3CCOCC3)cccc2C2C=CCC12` (centres undefined), the EC50 was > 11 µM (inactive).

In the case of `Cc1ccc(S(=O)(=O)NNC(=S)NC(=O)c2ccc([N+](=O)[O-])cc2)cc1`, the EC50 was > 11 µM (inactive).

For `CCN(CC)c1ccc(N=Cc2c(O)n(-c3cc(OC)ccc3OC)c(=O)[nH]c2=O)cc1`, the EC50 is > 11 µM (inactive).

On to `N=c1c(S(=O)(=O)c2ccc(Cl)cc2)cc2c(=O)n3ccccc3nc2n1CCc1ccccc1`, for which the EC50 is > 11 µM (inactive).

For the compound `C#CCOCCOCCOCCNc1nc(N2CCN(C(=O)[C@H]([C@@H](C)CC)n3cc([C@@H](N)CO)nn3)CC2)nc(N2CCN(C(=O)[C@H]([C@@H](C)CC)n3cc([C@@H](N)CC(C)C)nn3)CC2)n1`, the EC50 is > 11 µM (inactive).

For `Cc1ccc(N2C(=O)/C(=C/c3ccc(CN(CCC#N)S(C)(=O)=O)o3)C(=O)NC2=S)cc1C`, the EC50 was > 11 µM (inactive).

As to `CCCCCCn1c(O)c(C=Nc2ccccc2N2CCOCC2)c(=O)[nH]c1=S`, the EC50 is > 11 µM (inactive).

Turning to `O=[N+]([O-])c1ccc(/C=N/n2cnc3ccccc32)s1`, the EC50 is > 11 µM (inactive).

As to `CN(CC(=O)NCc1ccccn1)S(=O)(=O)c1ccc(Br)cc1`, the EC50 is > 11 µM (inactive).

As for `CC1CCN(c2nc3ccccc3nc2C(C#N)C(=O)NC2CCCCC2)CC1` (centres undefined), the EC50 is > 11 µM (inactive).

Regarding `Cc1ccc(S(=O)(=O)/N=C2\C=C(Nc3cccc(C(=O)O)c3)C(=O)c3ccccc32)c(C)c1`, the EC50 is > 11 µM (inactive).

As for `CCOC(=O)c1c(-n2c(C)cc(C=C3C(=O)NC(=O)NC3=O)c2C)sc2c1CCCC2`, the EC50 is > 11 µM (inactive).

Regarding `CN(C)c1ccnc(Oc2ccc(Cl)cc2)c1C#N`, the EC50 is > 11 µM (inactive).

With `COc1ccc(NC(=O)c2sc3nc(-c4cccnc4)ccc3c2N)cc1OC`, the EC50 is > 11 µM (inactive).

Consider `O=C(NCc1ccncc1)C(=O)N/N=C/c1ccccn1`, for which the EC50 was > 11 µM (inactive).

In the case of `CCc1c(C)nc(SCC(=O)c2cccs2)c(C#N)c1C`, the EC50 was > 11 µM (inactive).

Regarding `Cc1ccc(NCC(=O)N/N=C/c2ccc(C(=O)O)cc2)cc1`, the EC50 was > 11 µM (inactive).

In the case of `CCOC(=O)N1CCN(CC(=O)c2ccc(O)cc2O)CC1`, the EC50 is > 11 µM (inactive).

Consider `CCN(CC)C(=O)c1ccc2c(c1)C1C(Cl)C(Sc3ccccc3[N+](=O)[O-])CC1C(C(=O)O)N2` (centres undefined), for which the EC50 was > 11 µM (inactive).

Take `COc1ccc(OC)c(-n2c(O)c(/C=C3\C=Nc4ccccc43)c(=O)[nH]c2=O)c1`: the EC50 is > 11 µM (inactive).

With `COc1ccc2nc(SCC(=O)Nc3nonc3C)[nH]c2c1`, the EC50 is > 11 µM (inactive).

Turning to `O=C(O)c1cc(-c2ccc(/C=C3\NC(=O)N(c4ccc(Cl)cc4)C3=O)o2)ccc1Cl`, the EC50 was > 11 µM (inactive).

Take `CC(=O)n1c(C=Nc2ccccc2)c(O)c2ccccc21`: the EC50 is > 11 µM (inactive).

In the case of `O=C(c1ccco1)[C@@H]1[C@@H]2C(=O)N(c3ccccc3)C(=O)[C@@H]2C2c3ccccc3C=CN21` (some centres undefined), the EC50 was > 11 µM (inactive).

In the case of `CCN1/C(=C2/SC(=S)N(NC(C)=O)C2=O)Sc2ccccc21`, the EC50 is > 11 µM (inactive).

In the case of `Cc1ccc2nc3sc(C(=O)N4CCCc5ccccc54)c(N)c3cc2c1`, the EC50 is > 11 µM (inactive).

For the compound `COc1ccc(N2C(=O)/C(=C/c3ccco3)C(=O)NC2=S)cc1`, the EC50 is > 11 µM (inactive).

As for `Cc1ccc(S(=O)(=O)N2CCOCC2)cc1NC(=O)CN(C)C1CCS(=O)(=O)C1` (centres undefined), the EC50 was > 11 µM (inactive).

On to `CCOc1cc(/C=C2\C(=O)NC(=O)N(CCc3ccc(F)cc3)C2=O)ccc1O`, for which the EC50 was > 11 µM (inactive).

As for `Cc1ccc(-c2ccccc2)n1-c1cccc(C(=O)O)c1`, the EC50 is > 11 µM (inactive).

As to `O=c1oc2ccc3ccccc3c2cc1-c1nc2ccccc2o1`, the EC50 is > 11 µM (inactive).

Regarding `Cc1ccc(/C=C(\C#N)C(=O)Nc2c(C)cccc2C)s1`, the EC50 was > 11 µM (inactive).

Take `N=c1c(C(=O)NCc2ccc(F)cc2)cc2c(=O)n3ccccc3nc2n1Cc1cccnc1`: the EC50 is > 11 µM (inactive).

Regarding `Nc1nnc2c(n1)CCCC2`, the EC50 was > 11 µM (inactive).

Consider `CC1=C(C#N)C(=O)NC(=O)/C1=C\c1ccc(-c2ccc(C)cc2[N+](=O)[O-])o1`, for which the EC50 was > 11 µM (inactive).

`COc1cc(C2C(C#N)=C(N)OC3=C2C(=O)CCC3)ccc1OC(=O)N1CCOCC1` (centres undefined): the EC50 is > 11 µM (inactive).

With `Cc1ccc(O)c(-c2cc(C(=O)Nc3ccc(S(=O)(=O)Nc4nccc(C)n4)cc3)[nH]n2)c1`, the EC50 is > 11 µM (inactive).

As to `N#CC1=C(N)OC2=C(C(=O)CCC2)C12C(=O)N1CCCc3cccc2c31` (centres undefined), the EC50 is > 11 µM (inactive).

Consider `O=C(O)c1ccc(-n2c(-c3cc(-c4ccco4)[nH]n3)n[nH]c2=S)cc1`, for which the EC50 is > 11 µM (inactive).

As for `COc1ccc(-c2nnc(-c3cc4c(ccc5ccccc54)oc3=O)o2)cc1`, the EC50 was > 11 µM (inactive).

Consider `CCOc1ccc(S(=O)(=O)Nc2cc(Sc3ncn[nH]3)c3oc(=O)sc3c2)cc1`, for which the EC50 was > 11 µM (inactive).

As for `CCOc1cc(N2CCOCC2)c(OCC)cc1NC(C)C(=O)N1CCN(CC)CC1` (centres undefined), the EC50 was > 11 µM (inactive).

Turning to `Cc1cc(C)nc(NN2C(=O)C=CC2=O)n1`, the EC50 was > 11 µM (inactive).

Take `Cc1c(N=Cc2c(O)n(Cc3ccco3)c(=O)[nH]c2=O)c(=O)n(-c2ccccc2)n1C`: the EC50 is > 11 µM (inactive).

In the case of `N#CC1=C(N)Oc2cc(O)c(Cl)cc2C1c1ccccc1F` (centres undefined), the EC50 was > 11 µM (inactive).

In the case of `CN(C)c1ccc(N=Cc2nc(-c3ccccc3)oc2O)cc1`, the EC50 was > 11 µM (inactive).

With `CCn1c(=N)c(S(=O)(=O)c2ccc(F)cc2)cc2c(=O)n3ccccc3nc21`, the EC50 is > 11 µM (inactive).

For the compound `CC(C)(C)OC(=O)NCCCCC1=CC2=CC(=O)C(C)(OC(=O)c3cnc4ccccc4n3)C(=O)C2=CO1` (centres undefined), the EC50 is > 11 µM (inactive).

Turning to `O=C(NNC(=O)c1cc(Cl)ccc1[N+](=O)[O-])c1csc(N2CCOCC2)n1`, the EC50 is > 11 µM (inactive).

In the case of `CN1CCN(C2=C(Cl)C(=O)C(c3cnc(N4CCCCC4)s3)=C(Cl)C2=O)CC1`, the EC50 is > 11 µM (inactive).

On to `O=C1C2CC=C(Cl)CC2C(=O)N1CC1Cc2ccccc2CO1` (centres undefined), for which the EC50 was > 11 µM (inactive).

As for `CCCCC1=CC2=CC(=O)C(C)(OC(=O)CCC(=O)OC)C(=O)C2=CO1` (centres undefined), the EC50 is > 11 µM (inactive).

Consider `COc1cccc2c1NC(C(=O)O)C1CC=CC21` (centres undefined), for which the EC50 was > 11 µM (inactive).

Regarding `Cn1c(O)c(/C=C2\C=Nc3ccc(Br)cc32)c(=O)n(C)c1=O`, the EC50 is > 11 µM (inactive).

`Cc1nc2ccc(N3CCN(C)CC3)cc2nc1C`: the EC50 is > 11 µM (inactive).

As for `CCn1cc(C(=O)NCc2ccccn2)c(=O)c2cc(S(=O)(=O)N3CCCCC3)ccc21`, the EC50 is > 11 µM (inactive).

Regarding `Cc1nc2sc(-c3ccccc3)cc2c(=O)n1N`, the EC50 was > 11 µM (inactive).

For `N=c1c(C(=O)NC2CCCCC2)cc2c(=O)n3ccccc3nc2n1CCc1ccccc1`, the EC50 is > 11 µM (inactive).

As usually defined, the EC50 is the midpoint of the concentration-response curve.
